Our source for the Activity and MBC values is ChEMBL document CHEMBL1145473, “Efficacy of the de novo-derived antimicrobial peptide WLBU2 against oral bacteria” (2007).

Activity calls are given as the source filed them. The calls are words filed in the database; no cut-off is given here.

Test [1] deals with Streptococcus gordonii. The test is described as follows: Antimicrobial activity against Streptococcus gordonii DL1 ATCC 49818 biofilms assessed as decrease in viable cell count at 25 uM after 30 mins. It counts as functional, organism-based.
Test [2] has as its system Fusobacterium nucleatum. The test is described as follows: Antimicrobial activity against Fusobacterium nucleatum planktonic cells at 2 uM after 30 mins. It counts as functional, organism-based.
For the next test, the system named is Pseudomonas aeruginosa. The test is described as follows: Antimicrobial activity against Pseudomonas aeruginosa ATCC 47085 by broth dilution assay. It counts as functional. (In general: Dilution methods test growth across graded concentrations, often in twofold steps.)
For test [3], the system named is Fusobacterium nucleatum. The test is described as follows: Antimicrobial activity against Fusobacterium nucleatum ATCC 49256 by broth dilution assay. Format: functional.
Test [4] relates to Fusobacterium nucleatum. The test is described as follows: Antimicrobial activity against Fusobacterium nucleatum ATCC 25586 by broth dilution assay. Format: functional.
The next test deals with Porphyromonas gingivalis. Put plainly: Antimicrobial activity against Porphyromonas gingivalis W83 ATCC BAA0308 by broth dilution assay. Format: functional.
In test [5] the test system is Streptococcus gordonii. Put plainly: Antimicrobial activity against Streptococcus gordonii DL1 ATCC 49818 by broth dilution assay. It counts as functional.
The subject of test [6] is Streptococcus gordonii. Put plainly: Antimicrobial activity against Streptococcus gordonii DL1 ATCC 49818 planktonic cells at 25 uM after 30 mins. Format: functional, organism-based.
Test [7] concerns Fusobacterium nucleatum. Put plainly: Antimicrobial activity against Fusobacterium nucleatum biofilms assessed as decrease in viable cell count at 2 uM after 30 mins. Format: functional, organism-based.

H-RRWVRRVRRWVRRVVRVVRRWVRR-OH: the result with Streptococcus gordonii [1], with Fusobacterium nucleatum [2] and with Streptococcus gordonii [6] was Active. Further, the MBC (usually the lowest tested concentration that kills the bacteria rather than only halting them) against Pseudomonas aeruginosa was 1 µM; with Fusobacterium nucleatum [3] it was 1 µM; in the test with Fusobacterium nucleatum [4] it was 1 µM; with Porphyromonas gingivalis, 50 µM; in the test with Streptococcus gordonii [5] it was 12.5 µM.
As for `Cc1ncc([N+](=O)[O-])n1CCO`, the result in the test with Fusobacterium nucleatum [7] was inactive.
`CC1(C)S[C@@H]2[C@H](NC(=O)[C@H](N)c3ccc(O)cc3)C(=O)N2[C@H]1C(=O)O`: the result in the test with Fusobacterium nucleatum [7] was inactive.
